Reference: patent US10111848B2 (National Institute of Health and Medical Research, priority 2012, dated 2018)

Test system: Subjects exhibiting GLUT1 deficiency
Assay: Treatment of subjects exhibiting GLUT1 deficiency with triheptanoin (Example 1)
Format: in vivo
Settings: triheptanoin with each meal, about 30-35% of caloric intake, with or without other anti-epileptic drugs
From the text: The subjects' seizure frequency is reduced and their neurologic and movement disorder is improved due to the restoration of brain energy metabolism and net biosynthesis.

CCCCCCC(=O)OCC(COC(=O)CCCCCC)OC(=O)CCCCCC [triheptanoin, glyceryl triheptanoate]
neurologic and movement disorder: improved
seizure frequency: reduced
